Source: the Deep4Chem optical property database

Experiment: solvent given as SMILES

Molecule `CCCCN(CCCC)c1ccc2c(c1)C#CC#Cc1cc(C(F)(F)F)ccc1C#Cc1cc(c3cc1C#Cc1ccc(C(F)(F)F)cc1C#CC#Cc1cc(N(CCCC)CCCC)ccc1C#C3)C#C2` has an emission maximum (in ClCCl) of 550 nm and an emission maximum (in c1ccccc1) of 503 nm.

Work on `CCN(CC)c1ccc(-c2nc(Oc3ccc(-c4nc5ccccc5[nH]4)cc3)nc(Oc3ccc(-c4nc5ccccc5[nH]4)cc3)n2)cc1` yielded an emission maximum (in CN(C)C=O) of 431 nm.

In the case of `Cc1cc(C(F)(F)F)nc2c1ccc1nc(-c3ccc(Cl)cc3)cn12`, the emission maximum (in CC#N) was 463 nm, the emission maximum (in CCCCCC) was 439 nm and the emission maximum (in CCCCOC(C)=O) was 455 nm. It also gave an emission maximum (in CCOC(C)=O) of 457 nm, an emission maximum (in CO) of 459 nm and an emission maximum (in Cc1ccccc1) of 455 nm. For the same molecule, the emission maximum (in ClC(Cl)Cl) was 452 nm, the emission maximum (in ClCCl) was 455 nm and the emission maximum (in c1ccccc1) was 455 nm.

`O=C1/C(=C2\Sc3ccccc3C2=O)Sc2ccccc21` showed an emission maximum (in C1COCCO1) of 590 nm, an emission maximum (in CN(C)C=O) of 607 nm and an emission maximum (in CO) of 624 nm. It also gave an emission maximum (in CS(C)=O) of 614 nm and an emission maximum (in c1ccccc1) of 598 nm.

Molecule `c1ccc(-c2nc(-c3ccccc3)nc(-c3ccc(-n4c5ccccc5c5cc(-n6c7ccccc7c7ccccc76)ccc54)cc3)n2)cc1` has an emission maximum (in Cc1ccccc1) of 458 nm and an emission maximum (in O=P(c1ccccc1)(c1ccccc1)c1ccccc1Oc1ccccc1P(=O)(c1ccccc1)c1ccccc1) of 475 nm.

Work on `O=c1oc2ccccc2c2c1c(=O)oc1ccc3ccc(O)cc3c12` yielded an emission maximum (in CS(C)=O) of 506 nm and an emission maximum (in ClCCl) of 517 nm.

`Cc1ccc(-n2c(-c3cccc4cc[n-]c34)[nH+]c3c4ccccc4c4ccccc4c32)cc1` showed an emission maximum (in Cc1ccccc1) of 566 nm.

`Cc1cc(C)c(B(c2c(C)cc(C)cc2C)N2c3ccccc3C(C)(C)c3ccccc32)c(C)c1` showed an emission maximum (in C1CCCCC1) of 533 nm, an emission maximum (in Cc1ccccc1) of 558 nm and an emission maximum (in ClCCl) of 580 nm.

`CN(C)c1cccc2c1ccc1c(=O)oc(-c3ccc(C(F)(F)F)cc3)cc12` showed an emission maximum (in CC(C)=O) of 611 nm, an emission maximum (in CCCCCCCCO) of 585 nm and an emission maximum (in CCCCO) of 586 nm. For the same molecule, the emission maximum (in CCCO) was 591 nm, the emission maximum (in CCO) was 602 nm and the emission maximum (in CCOC(C)=O) was 578 nm. The emission maximum (in CN(C)C=O) was 614 nm, the emission maximum (in CO) was 612 nm and the emission maximum (in ClC(Cl)Cl) was 538 nm.

With `COc1ccc(-n2nc(C#N)c(N3CCCC3)n2)cc1OC` the emission maximum (in CC#N) was 417 nm.

For `COc1ccc2c3c(cccc13)C(=O)c1ccccc1-2`, the emission maximum (in CC#N) was 526.87 nm, the emission maximum (in CC(C)=O) was 520.02 nm and the emission maximum (in CC(C)O) was 541.13 nm. The emission maximum (in CCCCOCCCC) was 487.09 nm, the emission maximum (in CCOC(C)=O) was 506.07 nm and the emission maximum (in CCOCC) was 498.01 nm. The emission maximum (in CO) was 560.85 nm, the emission maximum (in Cc1ccccc1) was 500 nm and the emission maximum (in Clc1ccccc1) was 507.87 nm. For the same molecule, the emission maximum (in N#Cc1ccccc1) was 520.02 nm and the emission maximum (in O=C1CCCCC1) was 520.02 nm.

With `Cc1cc(C)n2c1C=[N+]1[N+](=C3C=NC=CN3[B-]1(F)F)[B-]2(F)F` the emission maximum (in ClCCl) was 490 nm.

For `C[Si](C)(C)C#Cc1cc2ccc3cc(C#C[Si](C)(C)C)cc4ccc(c1)c2c34`, the emission maximum (in Cc1ccccc1) was 407 nm.

In the case of `c1ccc2c(c1)Cc1ccccc1N2c1c2ccccc2c(N2c3ccccc3Cc3ccccc32)c2ccccc12`, the emission maximum (in Cc1ccccc1) was 553 nm.

`C[N+]1=C(/C=C/C2=C3Oc4c(cc5c6c4CCCN6CCC5)C(c4ccccc4C(=O)O)=C3CCC2)C(C)(C)c2ccccc21` gave an emission maximum (in CC#N) of 760 nm, an emission maximum (in CCO) of 745 nm and an emission maximum (in CO) of 749 nm. The emission maximum (in ClC(Cl)Cl) was 757 nm.

In the case of `COC(=O)C(Cc1ccc2oc(-c3ccc(N(c4ccccc4)c4ccccc4)cc3)nc2c1)NC(=O)OC(C)(C)C` (stereo not drawn), the emission maximum (in C1CCCCC1) was 395.25 nm, the emission maximum (in C1CCOC1) was 447.04 nm and the emission maximum (in C1COCCO1) was 436.75 nm. The emission maximum (in CC1CCCCC1) was 395 nm, the emission maximum (in CC1COC(=O)O1) was 474 nm and the emission maximum (in CC#N) was 465.75 nm. It also gave an emission maximum (in CC(C)=O) of 456.17 nm, an emission maximum (in CC(C)O) of 455.75 nm and an emission maximum (in CC(O)CO) of 482.75 nm. It also gave an emission maximum (in CCCCCC) of 392.75 nm, an emission maximum (in CCCCCCCC) of 394 nm and an emission maximum (in CCCCCO) of 454.75 nm. For the same molecule, the emission maximum (in CCCCO) was 454.5 nm, the emission maximum (in CCO) was 475.75 nm and the emission maximum (in CCOC(C)=O) was 448.75 nm. It also gave an emission maximum (in CN(C)C=O) of 461.75 nm, an emission maximum (in CO) of 486 nm and an emission maximum (in COCCOC) of 453.75 nm. It also gave an emission maximum (in CS(C)=O) of 474.5 nm, an emission maximum (in ClC(Cl)Cl) of 445 nm and an emission maximum (in ClCCl) of 451.25 nm. For the same molecule, the emission maximum (in N#Cc1ccccc1) was 461.25 nm, the emission maximum (in NC=O) was 491.5 nm and the emission maximum (in O) was 502.99 nm. The emission maximum (in OCC(F)(F)F) was 496.25 nm.
